Data as given in ChEMBL document CHEMBL1681733, “Synthesis and evaluation of [(1R)-1-amino-2-(2,5-difluorophenyl)ethyl]cyclohexanes and 4-[(1R)-1-amino-2-(2,5-difluorophenyl)ethyl]piperidines as DPP-4 inhibitors” (Bioorg Med Chem Lett, 2011).
pIC50: −log10 of the molar value.

Tests used:
[1] = Clearance in rat at 1 mg/kg, iv and 2 mg/kg, po; type: ADME, organism-based; settings: in vivo
Prolyl endopeptidase FAP = biological target: T1, Prolyl endopeptidase FAP (Homo sapiens, UniProt Q12884); assay: Inhibition of FAP
T1 sequence (Q12884 whole entry): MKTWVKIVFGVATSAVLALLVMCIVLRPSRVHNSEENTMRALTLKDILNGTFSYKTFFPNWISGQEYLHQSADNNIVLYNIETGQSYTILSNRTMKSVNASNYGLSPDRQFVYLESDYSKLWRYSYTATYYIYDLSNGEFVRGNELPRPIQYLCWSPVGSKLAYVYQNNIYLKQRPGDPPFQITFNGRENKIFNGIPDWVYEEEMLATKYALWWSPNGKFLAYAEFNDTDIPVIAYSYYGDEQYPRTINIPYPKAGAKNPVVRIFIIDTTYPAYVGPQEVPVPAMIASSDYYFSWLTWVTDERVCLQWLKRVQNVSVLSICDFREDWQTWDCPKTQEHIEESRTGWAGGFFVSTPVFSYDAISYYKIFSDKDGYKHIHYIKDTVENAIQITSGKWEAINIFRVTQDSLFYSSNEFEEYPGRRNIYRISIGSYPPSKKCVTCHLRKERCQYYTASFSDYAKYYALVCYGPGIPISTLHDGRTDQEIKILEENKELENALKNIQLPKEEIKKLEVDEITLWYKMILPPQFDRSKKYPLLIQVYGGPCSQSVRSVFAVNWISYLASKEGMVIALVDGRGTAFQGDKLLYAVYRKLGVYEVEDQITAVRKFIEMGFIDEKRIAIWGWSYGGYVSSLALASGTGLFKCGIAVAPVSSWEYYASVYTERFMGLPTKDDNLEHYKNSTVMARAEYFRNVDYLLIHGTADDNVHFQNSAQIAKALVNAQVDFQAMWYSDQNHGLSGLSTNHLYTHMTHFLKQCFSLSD

[2] = Cmax in rat at 1 mg/kg, iv and 2 mg/kg, po; type: ADME, organism-based; settings: in vivo
[3] = Oral bioavailability in rat at 2 mg/kg; type: ADME, organism-based; settings: in vivo
Dipeptidyl peptidase 4 = Dipeptidyl peptidase 4 (Homo sapiens, UniProt P27487)
Dipeptidyl peptidase 2 = Dipeptidyl peptidase 2 (Homo sapiens, UniProt Q9UHL4); assay: Inhibition of QPP
[4] = Half life in rat at 1 mg/kg, iv and 2 mg/kg, po; type: ADME, organism-based; settings: in vivo
Dipeptidyl peptidase 8 = Dipeptidyl peptidase 8 (Homo sapiens, UniProt Q6V1X1); assay: Inhibition of DPP8
Dipeptidyl peptidase 9 = Dipeptidyl peptidase 9 (Homo sapiens, UniProt Q86TI2); assay: Inhibition of DPP9
Sequence of Dipeptidyl peptidase 9 (Q86TI2 whole entry): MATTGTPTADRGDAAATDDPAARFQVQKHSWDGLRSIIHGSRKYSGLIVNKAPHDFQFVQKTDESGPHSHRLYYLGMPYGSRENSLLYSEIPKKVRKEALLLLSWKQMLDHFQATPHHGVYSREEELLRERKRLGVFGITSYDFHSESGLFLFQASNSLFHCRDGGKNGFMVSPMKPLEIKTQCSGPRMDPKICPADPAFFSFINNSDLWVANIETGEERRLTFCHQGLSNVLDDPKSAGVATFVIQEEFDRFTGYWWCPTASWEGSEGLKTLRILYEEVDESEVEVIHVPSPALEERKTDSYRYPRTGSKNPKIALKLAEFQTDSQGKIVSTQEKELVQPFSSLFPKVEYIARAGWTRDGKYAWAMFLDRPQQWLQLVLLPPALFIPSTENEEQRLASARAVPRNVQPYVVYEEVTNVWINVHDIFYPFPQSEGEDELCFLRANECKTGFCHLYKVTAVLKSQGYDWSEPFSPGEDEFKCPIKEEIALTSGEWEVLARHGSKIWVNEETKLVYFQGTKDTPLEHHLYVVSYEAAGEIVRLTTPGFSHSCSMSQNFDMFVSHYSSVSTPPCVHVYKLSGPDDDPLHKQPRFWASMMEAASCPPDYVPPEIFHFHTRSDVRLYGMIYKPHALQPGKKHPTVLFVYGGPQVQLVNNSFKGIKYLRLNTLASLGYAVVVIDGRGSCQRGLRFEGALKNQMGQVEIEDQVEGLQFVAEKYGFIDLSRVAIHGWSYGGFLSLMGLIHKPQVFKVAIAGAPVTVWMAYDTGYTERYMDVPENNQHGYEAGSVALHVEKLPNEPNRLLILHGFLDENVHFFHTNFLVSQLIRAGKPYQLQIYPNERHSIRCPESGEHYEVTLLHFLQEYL

Sequence of Dipeptidyl peptidase 8 (Q6V1X1 whole entry): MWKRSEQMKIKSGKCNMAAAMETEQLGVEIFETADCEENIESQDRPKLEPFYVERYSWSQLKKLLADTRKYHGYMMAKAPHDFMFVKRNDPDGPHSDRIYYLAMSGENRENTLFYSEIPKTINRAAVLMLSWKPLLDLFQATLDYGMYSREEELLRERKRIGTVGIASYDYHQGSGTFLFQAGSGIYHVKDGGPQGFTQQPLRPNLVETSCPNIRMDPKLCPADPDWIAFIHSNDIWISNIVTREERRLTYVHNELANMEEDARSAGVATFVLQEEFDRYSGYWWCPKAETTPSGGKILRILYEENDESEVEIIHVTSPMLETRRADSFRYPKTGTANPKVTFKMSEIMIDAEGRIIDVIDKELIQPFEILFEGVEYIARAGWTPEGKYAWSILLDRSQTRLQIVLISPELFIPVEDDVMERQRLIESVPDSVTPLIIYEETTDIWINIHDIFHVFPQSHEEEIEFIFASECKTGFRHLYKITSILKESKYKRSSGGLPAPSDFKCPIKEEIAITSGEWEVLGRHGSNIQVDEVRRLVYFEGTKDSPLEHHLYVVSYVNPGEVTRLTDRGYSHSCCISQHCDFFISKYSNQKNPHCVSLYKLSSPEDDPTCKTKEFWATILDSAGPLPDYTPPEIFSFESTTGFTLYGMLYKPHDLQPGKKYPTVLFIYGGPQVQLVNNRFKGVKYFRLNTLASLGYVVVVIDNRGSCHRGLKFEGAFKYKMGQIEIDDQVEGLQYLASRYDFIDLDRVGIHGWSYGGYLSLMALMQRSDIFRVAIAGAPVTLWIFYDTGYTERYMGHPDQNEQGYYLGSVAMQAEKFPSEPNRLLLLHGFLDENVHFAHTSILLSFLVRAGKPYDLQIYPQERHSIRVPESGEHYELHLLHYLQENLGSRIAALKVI
Sequence of Dipeptidyl peptidase 4 (P27487 whole entry): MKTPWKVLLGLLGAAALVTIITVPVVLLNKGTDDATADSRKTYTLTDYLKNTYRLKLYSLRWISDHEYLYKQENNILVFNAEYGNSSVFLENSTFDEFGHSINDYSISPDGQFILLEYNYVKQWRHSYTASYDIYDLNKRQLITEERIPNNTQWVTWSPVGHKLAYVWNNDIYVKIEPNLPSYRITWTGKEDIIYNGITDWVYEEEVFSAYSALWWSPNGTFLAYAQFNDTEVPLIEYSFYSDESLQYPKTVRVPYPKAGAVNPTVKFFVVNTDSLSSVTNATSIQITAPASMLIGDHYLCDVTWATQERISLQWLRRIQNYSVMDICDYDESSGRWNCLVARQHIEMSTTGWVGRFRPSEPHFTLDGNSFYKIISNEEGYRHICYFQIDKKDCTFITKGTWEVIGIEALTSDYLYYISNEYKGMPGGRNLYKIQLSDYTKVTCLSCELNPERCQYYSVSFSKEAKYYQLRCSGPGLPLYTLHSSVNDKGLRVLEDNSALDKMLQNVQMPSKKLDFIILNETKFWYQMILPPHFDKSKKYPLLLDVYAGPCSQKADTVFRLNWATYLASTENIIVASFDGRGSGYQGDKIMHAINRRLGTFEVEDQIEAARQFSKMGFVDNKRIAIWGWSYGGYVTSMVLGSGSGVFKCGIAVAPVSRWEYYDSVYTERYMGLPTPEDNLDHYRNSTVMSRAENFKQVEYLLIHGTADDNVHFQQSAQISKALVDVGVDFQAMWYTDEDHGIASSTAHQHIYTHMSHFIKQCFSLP

Structure (SMILES)	clearance [1] [L/h/kg]	pIC50 (Prolyl endopeptidase FAP)	Cmax [2] [µM]	bioavailability [3] [%]	pIC50 (Dipeptidyl peptidase 4)	pIC50 (Dipeptidyl peptidase 2)	half-life [4] [h]	pIC50 (Dipeptidyl peptidase 8)	pIC50 (Dipeptidyl peptidase 9)
CN(C(=O)CCC(=O)O)[C@H]1CC[C@H]([C@H](N)Cc2cc(F)ccc2F)CC1	–	< 4.46	–	–	6.85	< 4.00	–	< 4.00	< 4.00
CCN(C(C)=O)[C@H]1CC[C@H]([C@H](N)Cc2cc(F)ccc2F)CC1	–	< 4.46	–	–	6.59	< 4.00	–	< 4.00	< 4.00
CC(=O)N(CCCC(F)(F)F)[C@H]1CC[C@H]([C@H](N)Cc2cc(F)ccc2F)CC1	–	< 4.46	–	–	7.00	4.29	–	< 4.00	< 4.00
NC(=O)[C@@H]1CCCN([C@H]2CC[C@H]([C@H](N)Cc3cc(F)ccc3F)CC2)C1	12.1	< 4.46	0.024	24	–	–	2.1	–	–
CC(=O)N1CCC([C@H](N)Cc2cc(F)ccc2F)CC1	–	< 4.46	–	–	6.35	4.18	–	< 4.00	< 4.00
Cc1ccc(N2CCC([C@H](N)Cc3cc(F)ccc3F)CC2)c(C)n1	9.24	< 4.46	0.069	22	–	–	2.8	–	–
N[C@H](Cc1cc(F)ccc1F)C1CCN(c2cncnc2)CC1	10.3	< 4.46	0.019	4.5	–	–	0.92	–	–

Results, then the compound that gave them:

clearance [1] [L/h/kg]	pIC50 (Prolyl endopeptidase FAP)	Cmax [2] [µM]	bioavailability [3] [%]	pIC50 (Dipeptidyl peptidase 4)	pIC50 (Dipeptidyl peptidase 2)	half-life [4] [h]	pIC50 (Dipeptidyl peptidase 8)	pIC50 (Dipeptidyl peptidase 9)	Structure (SMILES)
12.2	< 4.46	0.019	13	–	–	–	–	–	CN([C@H]1CC[C@H]([C@H](N)Cc2cc(F)ccc2F)CC1)S(=O)(=O)c1cccc(C(N)=O)c1
10.8	< 4.46	0.19	25	7.03	5.07	3.5	< 4.00	–	CN([C@H]1CC[C@H]([C@H](N)Cc2cc(F)ccc2F)CC1)S(=O)(=O)c1ccc(-c2csnn2)cc1
6.96	< 4.46	0.032	2.2	7.26	4.20	3	< 4.00	< 4.00	Cc1noc(C)c1S(=O)(=O)N(C)[C@H]1CC[C@H]([C@H](N)Cc2cc(F)ccc2F)CC1
10.6	< 4.46	0.12	9.7	6.92	4.08	1	–	–	CC(=O)N(C)[C@H]1CC[C@H]([C@H](N)Cc2cc(F)ccc2F)CC1
